{"source": "patent US6620785B2", "about": "“Treatment of Mycobacterial diseases by administration of bactericidal/permeability-increasing protein products” (Xoma Corporation, priority 1993, dated 2003)", "molecules": {"B1": {"name": "BPI holoprotein: recombinant human bactericidal/permeability-increasing holoprotein, SEQ ID NOS:1 and 2 (protein)", "chain": "MRENMARGPCNAPRWVSLMVLVAIGTAVTAAVNPGVVVRISQKGLDYASQQGTAALQKELKRIKIPDYSDSFKIKHLGKGHYSFYSMDIREFQLPSSQISMVPNVGLKFSISNANIKISGKWKAQKRFLKMSGNFDLSIEGMSISADLKLGSNPTSGKPTITCSSCSSHINSVHVHISKSKVGWLIQLFHKKIESALRNKMNSQVCEKVTNSVSSKLQPYFQTLPVMTKIDSVAGINYGLVAPPATTAETLDVQMKGEFYSENHHNPPPFAPPVMEFPAAHDRMVYLGLSDYFFNTAGLVYQEAGVLKMTLRDDMIPKESKFRLTTKFFGTFLPEVAKKFPNMKIQIHVSASTPPHLSVQPTGLTFYPAVDVQAFAVLPNSSLASLFLIGMHTTGSMEVSAESNRLVGELKLDRLLLELKHSNIGPFPVELLQDIMNYIVPILVLPRVNEKLQKGFPLPTPARVQLYNVVLQPHQNFLLFGADVVYK"}}, "key": {"M. tuberculosis": {"tested_on": "M. tuberculosis", "experiment": "Bactec growth index assay of M. tuberculosis with rBPI23 and antibiotics (Example 5)", "assay_type": "cell-based"}, "[1]": {"tested_on": "M. tuberculosis (strain H37Ra) induced production of TNF by monocytes/macrophages", "assay_type": "cell-based, human", "settings": "second test, 4 μg/ml"}}, "note": "Read-outs that look alike come from different tables or passages of the source.", "data": [{"molecule": "CO[C@H]1/C=C/O[C@@]2(C)Oc3c(C)c(O)c4c(O)c(c(/C=N/N5CCN(C)CC5)c(O)c4c3C2=O)NC(=O)/C(C)=C\\C=C\\[C@H](C)[C@H](O)[C@@H](C)[C@@H](O)[C@@H](C)[C@H](OC(C)=O)[C@@H]1C", "note": "[RMP, rifampin]", "values": [{"measurement": "growth index", "setting": "M. tuberculosis; RMP 0.5 and 1.0 μg/ml, entire test period (day 2 to 18)", "value": "essentially no increase in growth index"}]}, {"molecule": "NNC(=O)c1ccncc1", "note": "[INH, isoniazid]", "values": [{"measurement": "growth index", "setting": "M. tuberculosis; INH alone, no BPI protein product, 0.006-0.05 μg/ml", "value": "increases generally began earlier and rose more steeply at lower doses than at higher doses"}]}, {"molecule": "B1", "values": [{"measurement": "inhibition of TNF production", "setting": "[1]; 3×10^5 to 1×10^7 organisms", "value": "Lesser degrees of inhibition"}, {"measurement": "inhibition of TNF production", "setting": "[1]; highest concentration of organisms, one duplicate test", "value": "no inhibition at all"}]}]}
